In the data set the test system is rodent carcinogenicity bioassays, tumor incidence. The data set can be described thus: CCRIS carcinogenicity studies. The method, boiled down:
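Archive of carcinogenicity, mutagenicity, tumor promotion and tumor inhibition results drawn from journals, NCI reports and other sources, expert-reviewed; covers 1985-2011 and is no longer updated.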

The mark [1] stands for this setting: Species: RAT, Route: ORAL, Tumor Site: Type of Lesion: LIVER.

We go through eleven molecules from PubChem BioAssay AID1259411 (Chemical Carcinogenesis Research Information System (CCRIS), 2018).

Structures are written as SMILES. Activity calls are given as the source filed them. The rule behind the calls is not given here.

For `CCn1cc(C(=O)O)c(=O)c2cc(F)c(N3CCNCC3)cc21`, the carcinogen call (Species: Rat, Strain/Sex: F344/Male (15/Group), Route: Oral, Dose: 0, 750, 1500 mg/kg daily for 3 wks after 2/3rd partial hepatectomy, from 2 wks after carcinogen dosing, 500 ppm phenobar, Tumor Site: Type of Lesion: Liver) is “inactive; negative”.
In the case of `O=[N+]([O-])c1ccc2nc[nH]c2c1`, the carcinogen call is, setting by setting: (Species: MOUSE, Strain/Sex: B6C3F1/FEMALE, Route: ORAL, Dose: 0, 0.12, 0.24% OF DIET, Dose: 0, 0.12, 0.24% OF DIET, Tumor Site: Type of Lesion: LIVER: HEPATOCELLULAR CARCINOMA OR HEPATOCELLULAR ADENOMA) “active; positive”; (Species: MOUSE, Strain/Sex: B6C3F1/MALE, Route: ORAL, Dose: 0, 0.12, 0.24% OF DIET, Dose: 0, 0.12, 0.24% OF DIET, Tumor Site: Type of Lesion: LIVER: HEPATOCELLULAR CARCINOMA OR HEPATOCELLULAR ADENOMA) “active; positive”; (Species: RAT, Strain/Sex: F344/FEMALE, Route: ORAL, Dose: 0, 0.12, 0.5% OF DIET, Dose: 0, 0.12, 0.5% OF DIET) “inactive; negative”; (Species: RAT, Strain/Sex: F344/MALE, Route: ORAL, Dose: 0, 0.12, 0.5% OF DIET, Dose: 0, 0.12, 0.5% OF DIET) “inactive; negative”.
Regarding `Clc1ccc(C(c2ccc(Cl)cc2)C(Cl)(Cl)Cl)cc1`, the carcinogen call (Species: MOUSE, Strain/Sex: B6AKF1/MALE,FEMALE, Route: GAVAGE/ORAL, Dose: 46.4 MG/KG FROM D 7-28 OF LIFE THEN 140 PPM IN DIET, Tumor Site: Type of Lesion: LIVER: HEPATOMA) was “active; positive”; the carcinogen call (Species: MOUSE, Strain/Sex: B6C3F1/FEMALE, Route: ORAL, Dose: 0, 87, 175 PPM IN DIET, TWA, Dose: 0, 87, 175 PPM IN DIET, TWA) was “inactive; negative”; the carcinogen call (Species: MOUSE, Strain/Sex: B6C3F1/MALE,FEMALE, Route: GAVAGE/ORAL, Dose: 46.4 MG/KG FROM D 7-28 OF LIFE THEN 140 PPM IN DIET, Tumor Site: Type of Lesion: LIVER: HEPATOMA) is “active; positive”; the carcinogen call (Species: MOUSE, Strain/Sex: B6C3F1/MALE, Route: ORAL, Dose: 0, 22, 90 PPM IN DIET, TWA, Dose: 0, 22, 90 PPM IN DIET, TWA) is “inactive; negative”; the carcinogen call (Species: MOUSE, Strain/Sex: BALB/MALE, Route: ORAL, Dose: 0, 175 PPM IN ACETONE ADDED TO DIET FOR 8 WK THEN BY 125 PPM FOR 8 WK AND 100 PPM FOR 59 WK (STUDY DURATION: 75 WK), Tumor Site: Type of Lesion: LIVER: HEPATOCELLULAR ADENOMA, HEPATOCELLULAR CARCINOMA) was “active; positive”; the carcinogen call (Species: MOUSE, Strain/Sex: CF-1/MALE,FEMALE, Route: DIET, Dose: 0, 50, 100 PPM FOR 2 YR, Tumor Site: Type of Lesion: LIVER) was “active; positive”. For the same molecule, the carcinogen call was “active; positive” (Species: MOUSE, Strain/Sex: CF-1/MALE,FEMALE, Route: DIET, Dose: 100 PPM FOR 110 WK, Tumor Site: Type of Lesion: LIVER); “active; positive” under setting [1]; “inactive; negative” (Species: RAT, Strain/Sex: OSBORNE-MENDEL/FEMALE, Route: ORAL, Dose: 0, 210, 420 PPM IN DIET, TWA, Dose: 0, 210, 420 PPM IN DIET, TWA); “inactive; negative” (Species: RAT, Strain/Sex: OSBORNE-MENDEL/MALE, Route: ORAL, Dose: 0, 321, 642 PPM IN DIET, TWA, Dose: 0, 321, 642 PPM IN DIET, TWA).
`Nc1ccc(Oc2ccc(N)c(Cl)c2)cc1Cl`: the carcinogen call (Species: RAT, Route: SUBCUTANEOUS, Tumor Site: Type of Lesion: EAR (CANAL)) is “active; positive”.
Regarding `O=NN1CCNCC1`, where the note is “Species: RAT, Strain/Sex: F344/FEMALE, Route: INTRAVESICAL, Dose: 0, 3.8 G (TOTAL DOSE) INJECTED INTO BLADDER 2/WK OVER 48 WK (STUDY DURATION: 102 WK), Tumor Site: Type of Lesion: NASAL CAVITY: TUMOR, BLADDER: TUMOR”, the carcinogen call was “active; positive”.
Turning to `[Ni]=[Se]`, the carcinogen call (Species: RAT, Strain/Sex: F344/MALE, Route: INTRAMUSCULAR, Tumor Site: Type of Lesion: INJECTION SITE: SARCOMA) was “active; positive”.
On to `O=[N+]([O-])c1ccc2ccc3ccc([N+](=O)[O-])c4ccc1c2c34`, for which the carcinogen call was “active; positive” (Species: RAT, Strain/Sex: F344/MALE, Route: SUBCUTANEOUS, Dose: 0, 0.002, 0.02 MG 2/WK FOR 10 WK (STUDY DURATION: 320 D), Dose: 0, 0.002, 0.02 MG 2/WK FOR 10 WK (STUDY DURATION: 320 D), Tumor Site: Type of Lesion: INJECTION SITE: SARCOMA); “active; positive” (Species: RAT, Strain/Sex: STRAIN CD/FEMALE, Route: INTRAGASTRIC, Dose: 0, 10 UMOL IN DMSO 3/WK FOR 4 WK (TOTAL DOSE: 16 UMOL/RAT) (STUDY DURATION: 78 WK), Tumor Site: Type of Lesion: ADRENAL GLAND: PHEOCHROMOCYTOMA, CORTICAL ADENOMA, PITUITARY GLAND: CARCINOMA, LIVER: HYPERPLASTIC NODULES, Tumor Site: Type of Lesion: ADRENAL GLAND: PHEOCHROMOCYTOMA, CORTICAL ADENOMA, PITUITARY GLAND: CARCINOMA, LIVER: HYPERPLASTIC NODULES); “active; positive” (Species: RAT, Strain/Sex: STRAIN CD/FEMALE, Route: INTRAGASTRIC, Dose: 0, 10 UMOL IN DMSO 3/WK FOR 4 WK (TOTAL DOSE: 16 UMOL/RAT) (STUDY DURATION: 78 WK), Tumor Site: Type of Lesion: MAMMARY GLAND: ADENOCARCINOMA, FIBROADENOMA); “active; positive” (Species: RAT, Strain/Sex: STRAIN CD/FEMALE, Route: INTRAPERITONEAL, Dose: 0, 10 UMOL IN DMSO 3/WK FOR 4 WK (TOTAL DOSE: 16 UMOL/RAT) (STUDY DURATION: 78 WK), Tumor Site: Type of Lesion: HEMATOPOIETIC SYSTEM: HISTIOCYTOMA, LEUKEMIA); “active; positive” (Species: RAT, Strain/Sex: STRAIN CD/FEMALE, Route: INTRAPERITONEAL, Dose: 0, 10 UMOL IN DMSO 3/WK FOR 4 WK (TOTAL DOSE: 16 UMOL/RAT) (STUDY DURATION: 78 WK), Tumor Site: Type of Lesion: MAMMARY GLAND: ADENOCARCINOMA); “active; positive” (Species: RAT, Strain/Sex: STRAIN-CD/FEMALE, Route: SUBCUTANEOUS, Dose: 0, 6.3 UMOL (TOTAL DOSE) ADMINISTERED OVER 8 WK BEGINNING ON DAY OF BIRTH (STUDY DURATION: 67 WK), Tumor Site: Type of Lesion: INTEGUMENTARY SYSTEM: MALIGNANT FIBROUS HISTIOCYTOMA, HEMATOPOIETIC SYSTEM: LEUKEMIA).
For the molecule `O=C(O)[C@@H]1[C@H](C(=O)O)[C@H]2CC[C@@H]1O2`, the carcinogen call is “active; positive (results not described separately for each sex)” (Species: Mouse, Strain/Sex: Crl, CD-1(ICR)BR/Male and female (60/Group), Route: Oral, Dose: 0, 750, 1500 ppm of endothal disodium, purity 19-23.1%, in diet for at least 78 wk, study duration 18 mo, Dose: 0, 750, 1500 ppm of endothal disodium, purity 19-23.1%, in diet for at least 78 wk, study duration 18 mo, Tumor Site: Type of Lesion: Duodenum and jejunum: increased incidence of tumors in high dose group); “active; positive (ca department of pesticide regulation evaluator described as a possibl” (Species: Rat, Strain/Sex: Cr, CD(SD)BR/Female (62/group), Route: Oral, Dose: Nominal concentrations of 0, 300, 900, 1800 ppm in diet for 104 wk, study duration 104 wk (actual concentration about 18, 300, 900, Tumor Site: Type of Lesion: Uterus: endometrial stromal tumors (0, 0, 4/60, 5/59)); “inactive; negative” (Species: Rat, Strain/Sex: Cr, CD(SD)BR/Male (62/group), Route: Oral, Dose: Nominal concentrations of 0, 300, 900, 1800 ppm in diet for 104 wk, study duration 104 wk (actual concentration about 18, 300, 900).
On to `C[C@H]1C(=O)O[C@@H]2CCN3CC=C(COC(=O)[C@](C)(O)[C@]1(C)O)[C@H]23`, for which the carcinogen call under setting [1] is “active; positive”.
As for `O=P(=O)O`, the carcinogen call was “inactive; negative” (Species: RAT, Strain/Sex: F344/FEMALE, Route: INHALATION, Dose: 0, 1, 5, 25 MG/M3 6 HR/D 5 D/WK FOR 24 MO (STUDY DURATION: 24 MO), Dose: 0, 1, 5, 25 MG/M3 6 HR/D 5 D/WK FOR 24 MO (STUDY DURATION: 24 MO)) and “inactive; negative” (Species: RAT, Strain/Sex: F344/MALE, Route: INHALATION, Dose: 0, 1, 5, 25 MG/M3 6 HR/D 5 D/WK FOR 24 MO (STUDY DURATION: 24 MO), Dose: 0, 1, 5, 25 MG/M3 6 HR/D 5 D/WK FOR 24 MO (STUDY DURATION: 24 MO)).
As for `CC(=O)N[C@@H](C=O)[C@@H](O)[C@H](O)[C@H](O)CO`, the carcinogen call is, setting by setting: (Species: Rat, Strain/Sex: F344/Female, Route: Oral, Dose: 0, 2.5, 5% in diet for 104 wk) “inactive; negative”; (Species: Rat, Strain/Sex: F344/Male, Route: Oral, Dose: 0, 2.5, 5% in diet for 104 wk) “inactive; negative”.
